Reference: the NIST ThermoML archive (doi:10.1021/acs.jced.6b00813)
± gives the expanded uncertainty stated by the source. One block for each compound: values may come before it.

Assays:
[1] = wn = mass fraction of the nth substance listed; details: 101.3 kPa, Liquid, Pycnometric method
[2] = Crystal; Titration method

- mass density ([1]; 273.15 K, w1 = 0.373): 1427 ± 2 kg/m3
Compound: [Ca+2].[Cl-].[Cl-] [calcium chloride] + O

Compound: O=[PH2][O-].O=[PH2][O-].[Ca+2] [calcium hypophosphite] + O
- mass density ([1]; 268.75 K, w1 = 0.1397): 1133 ± 2 kg/m3
- mass density ([1]; 270.15 K, w1 = 0.0909): 1089 ± 2 kg/m3
- mass density ([1]; 271.4 K, w1 = 0.0476): 1047 ± 2 kg/m3
- mass density ([1]; 272.15 K, w1 = 0.0244): 1024 ± 2 kg/m3
- mass density ([1]; 273.15 K, w1 = 0.1381): 1132 ± 2 kg/m3
- mass density ([1]; 283.15 K, w1 = 0.1362): 1131 ± 2 kg/m3
- mass density ([1]; 293.15 K, w1 = 0.1341): 1128 ± 2 kg/m3
- mass density ([1]; 303.15 K, w1 = 0.1322): 1125 ± 2 kg/m3
- mass density ([1]; 313.15 K, w1 = 0.1304): 1121 ± 2 kg/m3
- mass density ([1]; 323.15 K, w1 = 0.1293): 1117 ± 2 kg/m3
- mass density ([1]; 333.15 K, w1 = 0.1292): 1114 ± 2 kg/m3
- mass density ([1]; 343.15 K, w1 = 0.1292): 1111 ± 3 kg/m3
- mass density ([1]; 353.15 K, w1 = 0.1295): 1107 ± 3 kg/m3
- mass density ([1]; 363.15 K, w1 = 0.1297): 1103 ± 2 kg/m3
- mass density ([1]; 373.15 K, w1 = 0.1302): 1103 ± 2 kg/m3
- mass density ([1]; 376.95 K, w1 = 0.1302): 1103 ± 2 kg/m3

Compound: O=[PH2][O-].[Na+] [sodium phosphinate] + O
- mass density ([1]; 273.15 K, w1 = 0.4776): 1381 ± 2 kg/m3

Compound: O [water]
- Normal melting temperature [2]: 0.00 ± 0.77 °C

Compound: O [water] + O=[PH2][O-].O=[PH2][O-].[Ca+2]
- mass density ([1]; 273.15 K, w2 = 0): 999 ± 4 kg/m3
